Measurements taken from US11898114B2, “Reactions and methods for producing fuels” (Alliance for Sustainable Energy, LLC, priority 2020, dated 2024).
Like-named read-outs stand apart in the source and are kept apart here. Marks after values point to notes of the source that are not given here.

Experiments:
[1] = literature values (Fioroni, et al.; Lautenschütz, et al.; reported); cited from earlier work
[2] = literature values (Fioroni, et al.; Lautenschütz, et al.); cited from earlier work
[3] = literature values (Fioroni, et al.; Lautenschütz, et al.); cited from earlier work; remark: listed apart in the source
[4] = Water solubility (extraction into water, TOC and GC-MS-FID); type: physicochemical; conditions: component of B*POME1-6 extracted into water, 1:5 water:B*POME1-6
Protocol: The aqueous layer was then analyzed by total organic carbon (TOC) to determine the amount of the fuel product that was extracted into water. […] The concentration of each component was approximated from the FID response to estimate both the total amount of fuel product and relative solubility of individual components. […] Aqueous phases were diluted 1:2 with methanol. An Agilent 8890 GC/FID—5977B MS system was used for analysis. A volume of 1.0 μL was injected into a split/splitless inlet set to 275° C. and a split ratio of 1:100. Compounds were separated using an Rtx-50 column (50% phenyl polydimethylsiloxane, Restek) of dimensions 30 m×0.25 mm×0.25 μm with a helium carrier gas at a flow rate of 1.0 mL/min. A post column splitter was used to divert column effluent simultaneously to FID and MS detectors for qualitative and quantitative analysis. The GC oven temperature was held at 40° C. for 2 minutes, then ramped to 140° C. at 7° C./min, followed by a ramp to 290° C. at 12° C./min and held for 10 minutes. The MS transfer line and FID temperatures were set to 350° C. The MS detector was operated in continuous scan mode from m/z 29 to 300. The FID response was calibrated using a standard of 2,5-dimethylfuran prepared gravimetrically in acetone.

[5] = Lower heating value (ASTM D240-19); type: physicochemical; conditions: neat, measured
Protocol: (§1) Boiling point range of the target product was determined by a thermogravimetric analysis (TGA) based simulated distillation. Distillation temperatures were not determined via the standard method for diesel fuel, ASTM D86, due to the limited volume of sample available and gas chromatography based simulated distillation was not utilized given the relatively polar nature of POMEs. Analysis was conducted using a CAHN TG-131 TGA under flowing nitrogen with a ramp rate of 50° C./min from 25 to 550° C. The sample size was ca. 250 mg. The distillation parameters were selected to generate curves that closely matched ASTM D86 distillation values. […] Cloud point was measured using a Phase Technology Series 70X according to ASTM D5773; the method uncertainty is typically ±2.5° C. Flash point was measured according to ASTM D7094-17a with a method reproducibility stated as ±5.5° C. Indicated cetane number (ICN) was measured using an Advanced Fuel Ignition Delay Analyzer (AFIDA) instrument according to ASTM D8183-18 and where reproducibility is calculated as ±0.006407(ICN)^1.47. Higher heating value (HHV) and lower heating value (LHV) were determined according to ASTM D240-19 with a method reproducibility of ±0.4 MJ/kg.
(§2) Higher heating value (HHV) and lower heating value (LHV) were determined according to ASTM D240-19 with a method reproducibility of ±0.4 MJ/kg. […] Lubricity was measured using ASTM D6079-18. […]

[6] = Flash point (ASTM D7094-17a neat; D6450-16a blends); type: physicochemical; conditions: measured
Protocol: as §1, §2

[7] = Boiling point range (TGA-based simulated distillation); type: physicochemical; conditions: neat
Protocol: Boiling point range of the target product was determined by a thermogravimetric analysis (TGA) based simulated distillation. Distillation temperatures were not determined via the standard method for diesel fuel, ASTM D86, due to the limited volume of sample available and gas chromatography based simulated distillation was not utilized given the relatively polar nature of POMEs. Analysis was conducted using a CAHN TG-131 TGA under flowing nitrogen with a ramp rate of 50° C./min from 25 to 550° C. The sample size was ca. 250 mg. The distillation parameters were selected to generate curves that closely matched ASTM D86 distillation values. The results of this method were validated using a standard fuel oil designed for validating ASTM D86 (Accustandard). Cloud point was measured using a Phase Technology Series 70X according to ASTM D5773; the method uncertainty is typically ±2.5° C. Flash point was measured according to ASTM D7094-17a with a method reproducibility stated as ±5.5° C. Indicated cetane number (ICN) was measured using an Advanced Fuel Ignition Delay Analyzer (AFIDA) instrument according to ASTM D8183-18 and where reproducibility is calculated as ±0.006407(ICN)^1.47. Higher heating value (HHV) and lower heating value (LHV) were determined according to ASTM D240-19 with a method reproducibility of ±0.4 MJ/kg.

| SMILES | LHV [1] | Aqueous layer concentration of component [4] [g/L] | further results |
| --- | --- | --- | --- |
| CCOCOCOCC [EE-POME2] | 26^# MJ/kg |  |  |
| CCOCOCC [EE-POME1] | 29^# MJ/kg |  |  |
| COCOCOCOC [MM-POME3] |  |  | Flash point [2]: 54^# °C; Boiling point [3]: 156^# °C |
| CCCCOCOCOCOC [MB-POME3] |  | 1.1 |  |
| COCOC [MM-POME1, methylal] | 23^# MJ/kg |  |  |
| COCOCOCOCOCOCOC [MM-POME6] |  | 0.5 |  |
| CCOCOCOCOCC [EE-POME3] | 24^# MJ/kg |  | LHV [5]: 24 mJ/kg; Flash point [6]: 68 °C; Boiling point / boiling range [7]: 185 °C |
| CCOCOCOCOCOCC [EE-POME4] | 23^# MJ/kg |  |  |
| CCCCOCOCOCCCC [BB-POME2] |  | 0.1 |  |
| CCO [ethanol] | 26.8 mJ/kg |  |  |
| CCCCOCOCCCC [BB-POME1, dibutoxymethane] |  | 0.2 | Flash point [6]: 62 °C; Boiling point / boiling range [7]: 179 °C; Flash point [2]: 62^$ °C; Boiling point [3]: 187^$ °C |
| CCCCOCOCOCOCOC [MB-POME4] |  | 0.4 |  |
| COCOCOC [MM-POME2] |  | 0.6 |  |
| CCCCOCOCOC [MB-POME2] |  | 2.4 |  |
| COCOCOCOCOC [MM-POME4] |  | 1.5 | Flash point [2]: 88^# °C; Boiling point [3]: 202^# °C |
| COCOCOCOCOCOC [MM-POME5] | 19^# MJ/kg | 1.1 | Flash point [2]: 115^# °C; Boiling point [3]: 242^# °C |
| CCCCOCOCOCOCOCOC [MB-POME5] |  | 0.1 |  |
